# According to patent publication US12496289B2, “Methods of increasing magnesium bioavailability and absorption” (Balchem Corporation, priority 2020, dated 2025):
# Tests used:
# Caco-2 cells [1] = test: Caco-2 cell viability with ascorbic acid (fluorescent probes); assay type: cell-based; details: 0, 5, 25, or 50 mM ascorbic acid for 240 min; cells propagated 14 days
# Experimental: FIG. 5 depicts a graph illustrating the viability over time of cells incubated with various solutions. Caco-2 cells were propagated in T-75 tissue culture flasks for 14 days. The cells were then incubated with either 0, 5, 25, or 50 mM ascorbic acid for 240 min. Fluorescent probes were used to determine viability.
# Experiments were performed to test the impact of various ascorbic acid concentrations on cell viability. Caco-2 cells were propagated in T-75 tissue culture flasks for 14 days. The cells were then incubated with either 0, 5, 25, or 50 mM ascorbic acid for 240 min. Fluorescent probes were used to determine viability.
# Caco-2 cells [2] = test: Caco-2 in vitro magnesium transport assay; details: for Magnesium transport with increasing treatment concentration: 0, 5, 10, 15, 20, and 25 mg Mg (ascorbate or chloride)
# Experimental: Caco-2 cells were used to model in vitro magnesium absorption of intestinal cells. […] Six different solutions, with magnesium and varying ratios of ascorbate were tested. Each solution comprised 20 mM of magnesium. Cells were exposed to one of the six solutions for 4 hours, then the basal media was analyzed for magnesium, using a colorimetric test.
# Various magnesium solutions were tested to determine their impact on magnesium transport: magnesium ascorbate, magnesium bisglycinate, magnesium orotate, magnesium threonate, and magnesium malate (trihydrate and hexahydrate; abbreviated MgM3H20 or MgM6H20 respectively in FIG. 2). […] (see FIG. 2)
# Six different treatment concentrations were tested: 0, 5, 10, 15, 20, and 25 mg Mg (ascorbate or chloride).
Molecule,Cell viability (Caco-2 cells [1]),Magnesium transport with increasing treatment concentration (Caco-2 cells [2]; FIG. 3),"Magnesium transport compared with magnesium chloride at any given concentration tested (Caco-2 cells [2]; 0, 5, 10, 15, 20, and 25 mg Mg, FIG. 3)","Magnesium transport rate compared with other magnesium solutions (Caco-2 cells [2]; vs magnesium bisglycinate, orotate, threonate, malate (trihydrate and hexahydrate), FIG. 2)"
O=C1O[C@H]([C@@H](O)CO)C(O)=C1O [ascorbic acid],no conclusive evidence that ascorbic acid kills the cells,,,
"[Cl-].[Cl-].[Mg+2] [magnesium chloride, reference compound]",,"increased magnesium transport, in a linear fashion",,
magnesium ascorbate,,significant jump in magnesium transport between the 10 mM treatment and the 15 mM treatment,greater magnesium transport than magnesium chloride,statistically significant higher transport rate than any other magnesium solution tested
